Reference: patent US20230312587A1, “PTERIDINONE COMPOUNDS AND USES THEREOF” (Vertex Pharmaceutical Incorporated, priority 2018, published 2023)

These compounds were tested on β-catenin-TCF-mediated reporter transcription activity in Colo 205 cells (assay: Colo 205 reporter assay (TCF/LEF luciferase)). Settings: Colo 205 TCF/LEF luciferase reporter, five hours after addition of compound; read-out: TCF reporter Colo205 IC50.
Type: cell-based
From the text: The compounds of the invention described herein were screened using the assay procedure for β-catenin-TCF-mediated reporter transcription activity described below.
Reporter cell lines were generated by stably transfecting cells of cancer cell lines (e.g., colon cancer) with a plasmid reporter construct (From SABiosciences, a QIAGEN company) that includes TCF/LEF promoter driving expression of the firefly luciferase gene. TCF/LEF reporter constructs were made in which TCF/LEF promoter, a promoter with optimal number of TCF/LEF binding sites designed by SABiosceinces, was linked upstream of the firefly luciferase gene. This construct could also include a puromycin resistance gene as a selectable marker. This construct could also be used to stably transfect Colo 205 cells, a colon cancer cell line having a mutated APC gene that causes a constitutively active β-catenin. A control cell line was generated using another plasmid construct containing the luciferase gene under the control of a CMV basal promoter which is not activated by p-catenin.
Colo 205 Cultured cells with a stably transfected reporter construct were plated at approximately 10,000 cells per well into 384 well multi-well plates for twenty four hours. The testing compounds were then added to the wells in 2-fold serial dilutions using a twenty micromolar top concentration. A series of control wells for each cell type received only compound solvent. Five hours after the addition of compound, reporter activity for luciferase was assayed, by addition of the SteadyGlo luminescence reagent (Promega). The reporter luminescence activity was measured using Pherastar plate reader (BMG Labtech). Readings were normalized to DMSO only treated cells, and normalized activities were then used in the IC50 calculations. The Colo 205 reporter assay data are summarized in Table 45: A<0.3 μM; 0.3 μM≤B<1.0 μM; 1.0 μM≤C<5.0 μM; D≥5.0 μM
Colo 205 reporter assay data has also been obtained for certain R-isomers of Formula (I) wherein R^4 is —H or -D, and wherein the carbon to which R^3 and R^4 are attached (C2 carbon of Formula (X)) has R stereochemistry; such epimeric compounds are represented using the suffix “B” attached to the Compound described herein having the S stereochemistry at the carbon to which R^3 and R^4 are attached: […]

Compound | IC50 [µM]
(7R)-5,7,8-triethyl-7-methyl-2-(((1-(3,4,5-trifluorobenzyl)-1H-pyrazol-4-yl)methyl)amino)-7,8-dihydropteridin-6(5H)-one [Compound 235] | < 0.3
(S)-7-((S)-1-(tert-butoxy)ethyl)-4,8-dimethyl-2-(((1-(3,4,5-trifluorobenzyl)-1H-pyrazol-4-yl)methyl)amino)-7,8-dihydropteridin-6(5H)-one [Compound 747] | 0.3 to 1

Same assay, conditions: Homo sapiens, 5 h; Colo 205 TCF/LEF luciferase reporter, five hours after addition of compound; read-out: TCF reporter Colo205 IC50

Compound | IC50 [µM]
Cc1nc(N[C@H]2C[C@@H](NC(=O)Oc3ccc(F)cc3)C2)nc2c1NC(=O)[C@H](C)N2C [Compound 464, 4-fluorophenyl (cis-3-(((S)-4,7,8-trimethyl-6-oxo-5,6,7,8-tetrahydropteridin-2-yl)amino)cyclobutyl)carbamate] | 0.3 to 1

Same assay, conditions: Homo sapiens, COLO 205, 5 h, Colo 205 TCF/LEF luciferase reporter, five hours after addition of compound; read-out: TCF reporter Colo205 IC50

Compound | IC50 [µM]
COc1cc(Cn2cc(CNc3nc(C)c4c(n3)N(C)[C@@H](C)C(=O)N4)cn2)cnc1C(F)(F)F [Compound 213, (7S)-2-(((1-((5-methoxy-6-(trifluoromethyl)pyridin-3-yl)methyl)-1H-pyrazol-4-yl)methyl)amino)-4,7,8-trimethyl-7,8-dihydropteridin-6(5H)-one] | < 0.3
Cc1nc(NCc2cnn([C@@H](C)c3ccc(F)cc3)c2)nc2c1NC(=O)[C@H](C)N2C [Compound 71, (7S)-2-(((1-((S)-1-(4-fluorophenyl)ethyl)-1H-pyrazol-4-yl)methyl)amino)-4,7,8-trimethyl-7,8-dihydropteridin-6(5H)-one] | 0.3 to 1
C[C@H]1C(=O)Nc2cnc(NCc3cnn(Cc4ccc(C(F)(F)F)cc4)c3)nc2N1C [Compound 147, (7S)-7,8-dimethyl-2-(((1-(4-(trifluoromethyl)benzyl)-1H-pyrazol-4-yl)methyl)amino)-7,8-dihydropteridin-6(5H)-one] | < 0.3

More lines, now with the values ahead:

IC50 [µM] | Compound
< 0.3 | Cc1nc(N[C@@H]2CC[C@H](Nc3cnc(C(F)(F)F)cn3)C2)nc2c1NC(=O)[C@H](C(C)C)N2C [Compound 735, (S)-7-isopropyl-4,8-dimethyl-2-(((1R,3S)-3-((5-(trifluoromethyl)pyrazin-2-yl)amino)cyclopentyl)amino)-7,8-dihydropteridin-6(5H)-one]
1 to 5 | CN1C(=O)C2(COC2)N(C)c2nc(NCc3cnn(Cc4ccc(F)cc4)c3)ncc21 [Compound 228, 2′-(((1-(4-fluorobenzyl)-1H-pyrazol-4-yl)methyl)amino)-5′,8′-dimethyl-5′,8′-dihydro-6′H-spiro[oxetane-3,7′-pteridin]-6′-one]
< 0.3 | Cc1nc(NC2CN(C(=O)c3ccc(C(F)(F)F)cc3)C2)nc2c1NC(=O)[C@H](C(C)C)N2C [Compound 622, (S)-7-isopropyl-4,8-dimethyl-2-((1-(4-(trifluoromethyl)benzoyl)azetidin-3-yl)amino)-7,8-dihydropteridin-6(5H)-one]
≥ 5 | Cc1nc(NC2CN(C(=O)[C@@H]3CCCO3)C2)nc2c1NC(=O)[C@H](C(C)C)N2C [Compound 642, (S)-7-isopropyl-4,8-dimethyl-2-((1-((S)-tetrahydrofuran-2-carbonyl)azetidin-3-yl)amino)-7,8-dihydropteridin-6(5H)-one]
0.3 to 1 | Cc1nc(NC2CN(C(=O)Cn3ccc(C(F)(F)F)n3)C2)nc2c1NC(=O)[C@H](C(C)C)N2C [Compound 595, (S)-7-isopropyl-4,8-dimethyl-2-((1-(2-(3-(trifluoromethyl)-1H-pyrazol-1-yl)acetyl)azetidin-3-yl)amino)-7,8-dihydropteridin-6(5H)-one]
1 to 5 | Cc1nc(N[C@H]2C[C@@H](NC(=O)N(C)C3CCC(F)(F)CC3)C2)nc2c1NC(=O)[C@H](C(C)C)N2C [Compound 538, 1-(4,4-difluorocyclohexyl)-3-(cis-3-(((S)-7-isopropyl-4,8-dimethyl-6-oxo-5,6,7,8-tetrahydropteridin-2-yl)amino)cyclobutyl)-1-methylurea]

Same assay, conditions: Homo sapiens, COLO 205, 5 h, R-isomer at C2 (corresponding to C2 S-isomer); Colo 205 TCF/LEF luciferase reporter, 5 h; read-out: TCF reporter Colo205 IC50

IC50 [µM] | Compound
≥ 5 | Cc1nc(NCc2cnn(Cc3ccnc(C#N)c3)c2)nc2c1NC(=O)[C@@H](C)N2C [Compound I-1649]
